One may read the aqueous solubility as how much of the substance goes into solution per volume. Low values mean a poorly soluble substance, high ones a readily soluble substance.

46 molecules from the Biogen ADME set (Fang et al. 2023) can be followed below.

Values after ≈ are worked out from the molar mass of the structure shown.

For this series the following is noted: for aqueous solubility: pH 6.8.

For `O=C(NCc1nnc2c(O)nccn12)C1CCCC1`, the MDR1-MDCK efflux ratio was found to be 1.22; the intrinsic clearance, human liver microsomes is ≤ 4.74 mL/min/kg; the intrinsic clearance, rat liver microsomes was ≤ 10.7 mL/min/kg; the aqueous solubility was found to be 41.8 µg/mL (≈ 160 µM).
For `CC(C)(C)c1cc(C(=O)CSc2nncn2-c2ccccc2)cc(C(C)(C)C)c1O`, the intrinsic clearance, human liver microsomes amounted to 15.9 mL/min/kg and the intrinsic clearance, rat liver microsomes stood at 46.6 mL/min/kg.
For `CCOC(=O)c1c(C)n(C)c2ccc(O)cc12`, the intrinsic clearance, human liver microsomes was 30.8 mL/min/kg and the intrinsic clearance, rat liver microsomes is 166 mL/min/kg.
Regarding `Cc1noc(C)c1CS(=O)(=O)C1CCCc2ccccc21` (configuration not stated), the MDR1-MDCK efflux ratio stood at 0.953; the intrinsic clearance, human liver microsomes stood at 192 mL/min/kg; the intrinsic clearance, rat liver microsomes worked out at 1400 mL/min/kg.
Turning to `O=C(CCc1cn[nH]c1)NCCCn1cc(Cl)cn1`, the MDR1-MDCK efflux ratio turned out to be 18.1; the intrinsic clearance, human liver microsomes was ≤ 4.74 mL/min/kg; the intrinsic clearance, rat liver microsomes amounted to 27.9 mL/min/kg.
In the same order, the values of `Cc1nc(NCCN2C(=O)CCC2=O)c2c(C)csc2n1` are 6.04, 8.08 mL/min/kg and 158 mL/min/kg.
Turning to `N#CCCN(C(=O)c1cccs1)C12CC3CC(CC(C3)C1)C2`, the MDR1-MDCK efflux ratio is 0.531; the intrinsic clearance, human liver microsomes worked out at 262 mL/min/kg; the intrinsic clearance, rat liver microsomes stood at 2310 mL/min/kg; the aqueous solubility turned out to be 7.2 µg/mL (≈ 22.9 µM).
On the same counts, the results for `COc1ccccc1NC(=O)CN1CCCN(c2nc(C)cs2)CC1` are 0.716, 359 mL/min/kg, 1950 mL/min/kg and 55.5 µg/mL (≈ 154 µM).
On to `Cc1noc(-c2ccccc2C(=O)O)n1`, for which the intrinsic clearance, human liver microsomes was ≤ 4.74 mL/min/kg; the intrinsic clearance, rat liver microsomes was ≤ 10.7 mL/min/kg; the aqueous solubility was 35.3 µg/mL (≈ 173 µM).
Consider `CN1CCN(C2=c3ccccc3=Nc3ccc(Cl)cc3N2)CC1`, for which the MDR1-MDCK efflux ratio worked out at 0.8 and the aqueous solubility is 58.2 µg/mL (≈ 178 µM).
Consider `CCCCC1=NC2(CCCC2)C(=O)N1Cc1ccc(-c2ccccc2-c2nn[nH]n2)cc1`, for which the MDR1-MDCK efflux ratio stood at 148; the intrinsic clearance, human liver microsomes came out at 10.7 mL/min/kg; the intrinsic clearance, rat liver microsomes turned out to be 151 mL/min/kg; the aqueous solubility stood at 37 µg/mL (≈ 86.3 µM).
As to `CCc1csc(NC(=O)c2ccc3c(c2)nc(C)n3C)n1`, the intrinsic clearance, human liver microsomes was 33.9 mL/min/kg; the intrinsic clearance, rat liver microsomes is 108 mL/min/kg; the aqueous solubility came to 39.8 µg/mL (≈ 132 µM).
In the case of `Cc1cc(C)c2c(C(=O)N3CC4(CNC(=O)N4)C3)cc(C)nc2c1`, the MDR1-MDCK efflux ratio was found to be 8.46; the intrinsic clearance, human liver microsomes was ≤ 4.74 mL/min/kg; the intrinsic clearance, rat liver microsomes came to 30.7 mL/min/kg.
With `Cc1noc(C(C)C)c1C(=O)N1CC(C)OC(c2ccccc2)C1` (configuration not stated), the MDR1-MDCK efflux ratio was found to be 0.943; the fraction unbound, human plasma was 0.152; the fraction unbound, rat plasma was 0.129; the intrinsic clearance, human liver microsomes was found to be 71.2 mL/min/kg. Also, the intrinsic clearance, rat liver microsomes is 1610 mL/min/kg.
Turning to `C1CCN(c2nc(NC3CC3)nc(N3CCCCC3)n2)CC1`, the MDR1-MDCK efflux ratio is 0.301 and the aqueous solubility is 0.62 µg/mL (≈ 2.05 µM).
As for `Cc1ccc2oc([C@H]3CCN(Cc4ccc(C#N)cc4)C3)nc2c1`, the intrinsic clearance, human liver microsomes is 41.5 mL/min/kg; the intrinsic clearance, rat liver microsomes was 351 mL/min/kg; the aqueous solubility is 5.4 µg/mL (≈ 17 µM).
Regarding `COC(=O)c1c(C)[nH]c(C(=O)OCC(=O)N(C)Cc2cccs2)c1C`, the MDR1-MDCK efflux ratio is 1.47; the intrinsic clearance, human liver microsomes worked out at 54.1 mL/min/kg; the intrinsic clearance, rat liver microsomes was 484 mL/min/kg; the aqueous solubility is 40.6 µg/mL (≈ 111 µM).
`N#Cc1ncn(Cc2ncc(-c3ccccc3)s2)c1C#N`: the aqueous solubility turned out to be 44.5 µg/mL (≈ 153 µM).
With `Cc1c(-c2ccccc2)oc2c(C(=O)NCCCN3CCCCC3)cccc2c1=O`, the MDR1-MDCK efflux ratio is 11; the intrinsic clearance, human liver microsomes was found to be 13.3 mL/min/kg; the intrinsic clearance, rat liver microsomes worked out at 106 mL/min/kg; the aqueous solubility was found to be 48.7 µg/mL (≈ 120 µM).
In the same order, the values of `COC(=O)CC1=NN(c2ccc(OC)cc2)C(=O)/C1=C(/C)NCc1ccc(OC)cc1` are 1.26, 272 mL/min/kg, 503 mL/min/kg and 2.28 µg/mL (≈ 5.38 µM).
Take `CSCc1c(C(=O)NC(C)C)oc2ccccc12`: the MDR1-MDCK efflux ratio turned out to be 0.636; the intrinsic clearance, human liver microsomes stood at 85.1 mL/min/kg; the intrinsic clearance, rat liver microsomes is 367 mL/min/kg; the aqueous solubility amounted to 27.9 µg/mL (≈ 106 µM).
Take `Brc1cnc(N2CCCN(c3ccccc3)CC2)nc1`: the intrinsic clearance, human liver microsomes is 121 mL/min/kg and the intrinsic clearance, rat liver microsomes is 5670 mL/min/kg.
`O=c1c(=O)n(-c2ccc(F)c(F)c2)ccn1Cc1ccccc1Cl`: the MDR1-MDCK efflux ratio came to 0.696 and the aqueous solubility came out at 0.37 µg/mL (≈ 1.06 µM).
Turning to `Nc1ccnn1Cc1ccc(Cl)c(F)c1`, the intrinsic clearance, human liver microsomes is ≤ 4.74 mL/min/kg; the intrinsic clearance, rat liver microsomes was determined as 36.6 mL/min/kg; the aqueous solubility is 41.1 µg/mL (≈ 182 µM).
`COc1cc(CN2CCCNCC2)cc2c1OCO2`: the MDR1-MDCK efflux ratio is 8.38; the intrinsic clearance, human liver microsomes worked out at 5.17 mL/min/kg; the intrinsic clearance, rat liver microsomes was found to be 72.9 mL/min/kg.
Consider `N#Cc1cc(F)c(NS(=O)(=O)c2c[nH]c3cc(Cl)ccc23)cc1F`, for which the MDR1-MDCK efflux ratio was determined as 2.57; the fraction unbound, human plasma amounted to 0.0094; the fraction unbound, rat plasma was 0.0056; the intrinsic clearance, human liver microsomes is ≤ 4.74 mL/min/kg. Also, the aqueous solubility worked out at 66.1 µg/mL (≈ 180 µM).
As for `CNC(=O)c1ccc2c(c1)CCO[C@H]2CCN1CCN(c2ccc(C(N)=O)cc2)CC1`, the MDR1-MDCK efflux ratio stood at 21.5; the intrinsic clearance, human liver microsomes was ≤ 4.74 mL/min/kg; the intrinsic clearance, rat liver microsomes is ≤ 10.7 mL/min/kg; the aqueous solubility amounted to 90 µg/mL (≈ 213 µM).
As for `CC(C)[C@H](CO)Nc1nc(Nc2cc(N)cc(Cl)c2)c2ncn(C(C)C)c2n1`, the MDR1-MDCK efflux ratio was 16.9; the fraction unbound, human plasma came out at 0.00867; the fraction unbound, rat plasma turned out to be 0.00796.
Take `c1ccc(CCc2n[nH]c(-c3cccc4cnccc34)n2)cc1`: the MDR1-MDCK efflux ratio amounted to 1.09; the intrinsic clearance, human liver microsomes amounted to 107 mL/min/kg; the intrinsic clearance, rat liver microsomes is 443 mL/min/kg; the aqueous solubility is 41.7 µg/mL (≈ 139 µM).
Turning to `C[C@@H](C(=O)N1CCCC1)N1CCC(n2c(=O)[nH]c3ccccc32)CC1`, the MDR1-MDCK efflux ratio is 162; the intrinsic clearance, human liver microsomes was ≤ 4.74 mL/min/kg; the intrinsic clearance, rat liver microsomes is 64.5 mL/min/kg; the aqueous solubility is 40.6 µg/mL (≈ 119 µM).
For the molecule `C#CCNC(=O)Cc1coc2cc(OC)ccc12`, the MDR1-MDCK efflux ratio stood at 0.646; the intrinsic clearance, human liver microsomes was determined as 15.4 mL/min/kg; the intrinsic clearance, rat liver microsomes came to 183 mL/min/kg; the aqueous solubility was found to be 56.4 µg/mL (≈ 232 µM).
On the same counts, the results for `CNC(=O)c1ccccc1Nc1nc(Nc2ccc(N3CCOCC3)cc2OC)ncc1Cl` are 3.06, 14.9 mL/min/kg, 95.1 mL/min/kg and 1.95 µg/mL (≈ 4.15 µM).
On to `Cc1cccc2cc(C(=O)NCCCn3nnc4ccccc43)n(C)c12`, for which the MDR1-MDCK efflux ratio came out at 0.886; the intrinsic clearance, human liver microsomes came to 325 mL/min/kg; the intrinsic clearance, rat liver microsomes worked out at 1410 mL/min/kg.
For `CCc1ccccc1NC(=O)Cn1nc(C)cc1C`, the MDR1-MDCK efflux ratio came out at 0.716; the intrinsic clearance, human liver microsomes worked out at 25.2 mL/min/kg; the intrinsic clearance, rat liver microsomes is 94.9 mL/min/kg; the aqueous solubility stood at 44.2 µg/mL (≈ 172 µM).
As for `CNCc1cc(N(C)C)nc(C2CCCN2C(=O)c2ccccc2-c2ccccc2)n1` (configuration not stated), the MDR1-MDCK efflux ratio is 65.4; the intrinsic clearance, human liver microsomes was 30.8 mL/min/kg; the intrinsic clearance, rat liver microsomes came to 228 mL/min/kg.
On the same counts, the results for `O=C(NC[C@]1(O)CCN(Cc2ccsc2)C[C@H]1O)c1c[nH]cn1` are 0.366, ≤ 4.74 mL/min/kg and ≤ 10.7 mL/min/kg.
For the molecule `CC(=O)Nc1ccc(CNCCOc2ccc(F)cc2F)cc1`, the MDR1-MDCK efflux ratio amounted to 1.57; the intrinsic clearance, human liver microsomes is 12.5 mL/min/kg; the intrinsic clearance, rat liver microsomes was determined as 114 mL/min/kg.
With `CN1CCN(S(=O)(=O)c2ccc(C(F)(F)F)nc2)C(C)(C)C1`, the MDR1-MDCK efflux ratio amounted to 0.642; the intrinsic clearance, human liver microsomes is 42.2 mL/min/kg; the intrinsic clearance, rat liver microsomes was determined as 661 mL/min/kg.
On to `CC(C)CN1CC[C@H](c2nc3ccc(C#N)cc3[nH]2)C1`, for which the MDR1-MDCK efflux ratio worked out at 1.46; the intrinsic clearance, human liver microsomes turned out to be 6.69 mL/min/kg; the intrinsic clearance, rat liver microsomes worked out at 76.3 mL/min/kg; the aqueous solubility worked out at 36.7 µg/mL (≈ 137 µM).
As to `CC(C)c1cc(C(=O)N2Cc3ccc(CN4CCN(C)CC4)cc3C2)c(O)cc1O`, the MDR1-MDCK efflux ratio was found to be 24.3; the intrinsic clearance, human liver microsomes was ≤ 4.74 mL/min/kg; the intrinsic clearance, rat liver microsomes was 50.4 mL/min/kg; the aqueous solubility came out at 44.6 µg/mL (≈ 109 µM).
On the same counts, the results for `C/C=C/CC(=O)N1CCC(c2cc(Cc3ccccc3)n[nH]2)CC1` are 2.41, 52 mL/min/kg, 771 mL/min/kg and 24.1 µg/mL (≈ 74.5 µM).
Consider `COc1cccc(C)c1C(=O)N(C)CCCn1cccn1`, for which the MDR1-MDCK efflux ratio turned out to be 3.55; the intrinsic clearance, human liver microsomes was found to be 38 mL/min/kg; the intrinsic clearance, rat liver microsomes was determined as 500 mL/min/kg.
On the same counts, the results for `Cc1cnc(N2CCSCC2)nc1N1CCSCC1` are 0.691, 193 mL/min/kg and 2640 mL/min/kg.
As to `COCc1ccccc1CNc1ccc2cc(C#N)ccc2n1`, the MDR1-MDCK efflux ratio amounted to 0.442; the intrinsic clearance, human liver microsomes worked out at 73.8 mL/min/kg; the intrinsic clearance, rat liver microsomes worked out at 429 mL/min/kg; the aqueous solubility was found to be 2.61 µg/mL (≈ 8.6 µM).
For the molecule `CC(=O)Nc1ccccc1OCCOc1ccc(Cl)cc1`, the MDR1-MDCK efflux ratio was 0.373; the intrinsic clearance, human liver microsomes was 95.8 mL/min/kg; the intrinsic clearance, rat liver microsomes is 665 mL/min/kg.
In the same order, the values of `CC(C)[C@H]1C(=O)N[C@H](CO)Cc2cc(NC(=O)/C=C/C=C/c3ccc(C(F)(F)F)cc3)ccc2N1C` are 55.9, 497 mL/min/kg and 439 mL/min/kg.
